pIC50: −log10 of the molar value.
What was measured:
K7M2 cells = assay: Sulforhodamine B cytotoxicity / cell viability assay; type: cell-based, murine; settings: Mus musculus
Experimental: Murine K7M2 and human MG63.3 OS cells were treated with increasing concentrations of LY5 for 2 hrs or 7 hrs. Western blotting was performed for pSTAT3 and STAT3 as indicated above to confirm inhibition of STAT3 phosphorylation in the cell lines prior to initiation of the PuMA assay. In addition, a sulforhodamine B colorimetric assay was performed to assess the cytotoxicity of LY5 in K7M2 and MG63.3 cells as previously described.
MG63.3 and K7M2 cell lines were exposed to increasing concentrations of LY5 to determine the IC50 (A). Western blot analysis was performed to determine the dose and duration of LY5 exposure required to inhibit STAT3 phosphorylation (B-C). Serial imaging of fluorescently labeled MG63.3 and K7M2 cells was performed in ex vivo LY5 treated lung sections (D). Metastatic burden was quantified by evaluation of the percent tumor burden (mean normalized fluorescent area). Data are reported as the mean ± standard deviation. In MG 63.3 experiment, p < 0.0001 Kruskal-Wallis test, p < 0.05 10 μM vs control at days 7, 14, and 21, 10 μM vs 1 μM at days 7, 14, and 21, 50 μM vs control at days 7, 14, and 21, and 50 μM vs 10 μM at days 7, 14, and 21 post-test Dunn. In K7M2 experiment, p < 0.0001 Kruskal-Wallis test, p < 0.05 10 μM vs control at days 14 and 21, 10 μM vs 0.1 μM at days 14 and 21, and 10 μM vs 1 μM at days 14 and 21, post-test Dunn.

STAT2 = molecular target: T1, STAT2 (Homo sapiens, UniProt P52630); assay: Cytokine-induced STAT2 phosphorylation in SJSA cells, Western blot; type: cell-based; settings: induced by IFN-γ, IFN-α, or IL-4
T1 construct: endogenous in cells; host or cells: SJSA
Experimental: (§1) Cell lysis, protein isolation and immunoblotting were performed as described previously. Twenty micrograms of protein were resolved using 4–12% Bis-Tris polyacrylamide gels. Gels were transferred to PVDF membranes and subjected to blocking and incubation with primary and secondary antibodies. The primary antibodies used in this study included: phospho-STAT3 (Tyr705, Cell Signaling, Boston, MA and Abcam, Cambridge, MA), total STAT3 (Cell Signaling and Abcam), phospho-STAT1 (Cell Signaling), total STAT1 (Cell Signaling), phospho-STAT2 (Cell Signaling), phospho-STAT4 (Cell Signaling), phospho-STAT6 (Cell Signaling), and GAPDH (Cell Signaling). Protein bands were detected using Western Lightning ® Plus Enhanced Chemiluminescence substrate (Perkin Elmer, Waltham, MA) and HyBlot CL ® Autoradiography film (Denville Scientific, Holliston, MA). The cytokines used in this study included: interferon gamma (IFN-γ, Cell Signaling), interferon alpha (IFN-α, Cell Signaling), interleukin-4 (IL-4, Cell Signaling), interleukin-6 (IL-6, Cell Signaling), and oncostatin M (OSM, Cell Signaling).
(§2) Fig 1 LY5 inhibits pSTAT3 in sarcoma cell lines. (A) The tumor cell lines RH30, EW8, and RD were treated with increasing concentrations of LY5 for 30 minutes. Cell lysates were collected for Western blotting of p-STAT3, total STAT3, and GAPDH. GAPDH was used as loading control. […]

STAT6 = molecular target: T2, STAT6 (Homo sapiens, UniProt P42226); assay: Cytokine-induced STAT6 phosphorylation in SJSA cells, Western blot; type: cell-based; settings: induced by IFN-γ, IFN-α, or IL-4
T2 construct: endogenous in cells; host or cells: SJSA
Experimental: as §1, §2

[1] = Clinical toxicities in normal dogs; type: in vivo; settings: 1 mg/kg, 24 hour PK collection timeframe
Experimental: LY5 was evaluated in two normal purpose-bred beagle dogs (female 8.8 kg; male 11.2 kg) receiving a single dose of 1mg/kg LY5 IV then orally by gavage 7 days later to establish the PK profile and assess the spectrum of clinical toxicities associated with LY5 administration. The oral dosing was repeated in the fed and fasted state. The starting dose was determined based on allometric scaling from the maximal tolerated dose studies performed in mice. Dogs were washed out for 30 days, and then given a dose of 25 mg in a capsule orally, followed by a 50 mg capsule dose 14 days later. Full PK sampling was performed over 24 hours following each dose of LY5. The dogs received LY5 and were used for the PK analysis but were not euthanized upon conclusion of the study.

STAT3 = STAT3 (Homo sapiens, UniProt P40763); assay: pSTAT3 in pulmonary metastatic lesions, IHC and Western blotting; type: in vivo, mice; set-up: from tissue; host or cells: OS-17-luc lung metastases and OS-1 subcutaneous PDX tumours in C.B-17 scid mice; settings: 20 mg/kg LY5 daily for 30 days; immunohistochemistry and Western blotting
Experimental: The ability of LY5 to inhibit pulmonary metastases was evaluated using a murine model of OS pulmonary metastasis. 8-week-old C.B-17 scid -/- female mice (Envigo, Madison, WI) received IV inoculation with 10^6 OS-17-luc cells expressing a luciferase reporter gene. OS-17-luc cells were generated by infecting OS-17 wild type cells with lentivirus containing the firefly luciferase under a CMV promoter (Cellomics Technology, Hallethorpe, MD) and selected with 0.5 ug/mL puromycin (Thermo Fisher Scientific, Waltham, MA). Beginning 24 hrs after inoculation, mice received vehicle (n = 10) or 20 mg/kg LY5 once daily via oral gavage (n = 9, one mouse died within 24 hrs after cell inoculation). LY5 was prepared by diluting a 40 mg/mL solution/slurry with a 50% propylene glycol/1% Tween 20 in water vehicle immediately before administration. Mice were treated with LY5 for 30 days, and bioluminescent imaging (after IP luciferin administration) was performed to determine pulmonary metastatic disease load. To investigate the pharmacodynamics (PD) effects of LY5, pSTAT3 (p-Tyr705, ab76315, Abcam) and total STAT3 (ab119352, Abcam) were evaluated in pulmonary metastatic lesions using IHC in lung samples from mice euthanized 24 hrs after their last dose.
(A-B) IHC staining of lung metastasis from mice treated with LY5. The metastatic tumor sections were stained with pSTAT3 or hematoxylin and eosin. […]

Chain of STAT3 (P40763 whole entry): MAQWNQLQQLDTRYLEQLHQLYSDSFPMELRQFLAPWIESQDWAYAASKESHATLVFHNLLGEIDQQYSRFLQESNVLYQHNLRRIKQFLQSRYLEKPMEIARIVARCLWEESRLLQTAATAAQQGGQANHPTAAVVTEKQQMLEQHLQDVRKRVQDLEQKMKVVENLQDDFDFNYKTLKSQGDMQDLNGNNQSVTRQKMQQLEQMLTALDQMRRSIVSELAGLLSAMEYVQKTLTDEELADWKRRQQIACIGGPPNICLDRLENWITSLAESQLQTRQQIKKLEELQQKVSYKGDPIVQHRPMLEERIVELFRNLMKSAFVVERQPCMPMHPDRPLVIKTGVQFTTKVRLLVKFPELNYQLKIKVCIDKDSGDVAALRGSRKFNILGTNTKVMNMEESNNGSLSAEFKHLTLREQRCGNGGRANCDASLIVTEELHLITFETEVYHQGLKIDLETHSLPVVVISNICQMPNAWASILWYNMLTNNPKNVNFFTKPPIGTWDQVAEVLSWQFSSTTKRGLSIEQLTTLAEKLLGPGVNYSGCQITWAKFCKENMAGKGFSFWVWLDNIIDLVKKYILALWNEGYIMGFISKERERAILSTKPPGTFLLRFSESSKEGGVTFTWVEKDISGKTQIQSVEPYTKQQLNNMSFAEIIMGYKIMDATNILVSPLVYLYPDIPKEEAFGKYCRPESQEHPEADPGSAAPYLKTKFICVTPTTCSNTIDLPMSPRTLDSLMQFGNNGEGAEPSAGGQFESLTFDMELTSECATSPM
T1 sequence (P52630 whole entry): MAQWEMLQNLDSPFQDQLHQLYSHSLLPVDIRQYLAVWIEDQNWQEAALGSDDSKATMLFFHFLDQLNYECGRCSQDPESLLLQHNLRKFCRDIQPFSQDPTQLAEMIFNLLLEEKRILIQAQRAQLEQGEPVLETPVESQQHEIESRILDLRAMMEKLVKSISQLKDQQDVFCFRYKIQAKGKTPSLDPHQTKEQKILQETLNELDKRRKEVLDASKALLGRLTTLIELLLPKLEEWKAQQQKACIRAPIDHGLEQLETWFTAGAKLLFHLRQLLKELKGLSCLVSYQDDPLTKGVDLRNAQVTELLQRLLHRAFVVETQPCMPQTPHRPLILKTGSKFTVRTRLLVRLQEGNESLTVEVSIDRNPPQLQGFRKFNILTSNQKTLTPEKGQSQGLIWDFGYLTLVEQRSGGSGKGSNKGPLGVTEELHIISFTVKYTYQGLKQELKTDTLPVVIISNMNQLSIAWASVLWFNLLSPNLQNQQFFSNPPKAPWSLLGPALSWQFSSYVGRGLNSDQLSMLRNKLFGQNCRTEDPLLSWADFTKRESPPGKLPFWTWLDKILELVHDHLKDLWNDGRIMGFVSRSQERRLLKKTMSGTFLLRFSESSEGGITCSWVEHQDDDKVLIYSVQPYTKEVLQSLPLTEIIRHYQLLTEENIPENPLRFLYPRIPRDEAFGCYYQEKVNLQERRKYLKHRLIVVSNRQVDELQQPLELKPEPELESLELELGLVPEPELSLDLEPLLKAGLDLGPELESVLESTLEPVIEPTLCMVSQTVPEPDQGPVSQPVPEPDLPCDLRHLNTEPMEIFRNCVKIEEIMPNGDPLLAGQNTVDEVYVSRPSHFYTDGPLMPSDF
T2 sequence (P42226 whole entry): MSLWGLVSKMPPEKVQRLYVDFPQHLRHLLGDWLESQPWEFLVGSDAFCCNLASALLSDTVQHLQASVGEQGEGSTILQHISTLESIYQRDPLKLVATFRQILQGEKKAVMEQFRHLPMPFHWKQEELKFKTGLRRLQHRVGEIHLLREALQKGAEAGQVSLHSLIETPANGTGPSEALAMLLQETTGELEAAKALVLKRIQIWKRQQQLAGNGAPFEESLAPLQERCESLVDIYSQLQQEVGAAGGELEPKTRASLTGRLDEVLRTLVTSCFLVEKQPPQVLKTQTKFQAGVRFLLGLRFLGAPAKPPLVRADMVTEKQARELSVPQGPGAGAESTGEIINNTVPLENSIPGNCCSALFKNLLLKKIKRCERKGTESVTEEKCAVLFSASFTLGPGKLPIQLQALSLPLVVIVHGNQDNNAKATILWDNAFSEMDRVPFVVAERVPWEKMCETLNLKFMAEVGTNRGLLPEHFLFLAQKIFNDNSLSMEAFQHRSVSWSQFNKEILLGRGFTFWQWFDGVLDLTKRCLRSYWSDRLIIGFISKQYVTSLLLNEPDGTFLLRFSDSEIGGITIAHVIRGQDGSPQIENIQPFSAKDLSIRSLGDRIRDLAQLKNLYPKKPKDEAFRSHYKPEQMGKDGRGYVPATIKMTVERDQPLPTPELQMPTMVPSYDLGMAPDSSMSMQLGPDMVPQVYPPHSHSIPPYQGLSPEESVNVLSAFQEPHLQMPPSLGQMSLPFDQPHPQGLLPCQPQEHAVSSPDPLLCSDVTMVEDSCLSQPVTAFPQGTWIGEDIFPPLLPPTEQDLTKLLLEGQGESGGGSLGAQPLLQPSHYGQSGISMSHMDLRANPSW

NS(=O)(=O)c1cccc2c1C(=O)C=C(Nc1cccnc1)C2=O [LY5, 5,8-dioxo-6-(pyridin-3-ylamino)-5,8-dihydronaphthalene-1-sulfonamide]
pIC50 (K7M2 cells): 5.82 | phosphorylation of STAT2 (STAT2): did not inhibit | phosphorylation of STAT6 (STAT6): did not inhibit | tolerability / acute clinical toxicities [1]: well tolerated without apparent acute clinical toxicities | STAT3 phosphorylation in pulmonary metastatic lesions (STAT3): inhibited STAT3 phosphorylation

Source: PMC5531494, “Target specificity, in vivo pharmacokinetics, and efficacy of the putative STAT3 inhibitor LY5 in osteosarcoma, Ewing's sarcoma, and rhabdomyosarcoma” (PLoS ONE, 2017)
